Experimental data published in patent publication EP1247803A2, “Indolinone compounds suitable for modulation of protein kinases” (Sugen, Inc., priority 1996, dated 1998).

Columns and labels:
MET = MET biochemical kinase assay; parameters: species or system human; concentration or dose not given beside the values
How it was run: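 Human MET was captured from cell lysates onto ELISA plates via goat anti-rabbit Fc and rabbit polyclonal antibody to the MET cytoplasmic domain. After washing, test compounds and kinase buffer with ATP and divalent metal ions were added. Phosphotyrosine was detected with HRP-conjugated anti-phosphotyrosine antibody and TMB colorimetric read-out.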

EGFR = target: T1, EGFR (Homo sapiens, UniProt P00533); assay: EGFR ELISA assay (in vitro kinase activity, EGFR captured from A431 cell lysate); type: biochemical; parameters: concentration or dose not given beside the values
T1 construct: Add 7 ug A431 cell lysate per well (EGFR source); endogenous in cells; host or cells: A431
T1 sequence (P00533 25-1210): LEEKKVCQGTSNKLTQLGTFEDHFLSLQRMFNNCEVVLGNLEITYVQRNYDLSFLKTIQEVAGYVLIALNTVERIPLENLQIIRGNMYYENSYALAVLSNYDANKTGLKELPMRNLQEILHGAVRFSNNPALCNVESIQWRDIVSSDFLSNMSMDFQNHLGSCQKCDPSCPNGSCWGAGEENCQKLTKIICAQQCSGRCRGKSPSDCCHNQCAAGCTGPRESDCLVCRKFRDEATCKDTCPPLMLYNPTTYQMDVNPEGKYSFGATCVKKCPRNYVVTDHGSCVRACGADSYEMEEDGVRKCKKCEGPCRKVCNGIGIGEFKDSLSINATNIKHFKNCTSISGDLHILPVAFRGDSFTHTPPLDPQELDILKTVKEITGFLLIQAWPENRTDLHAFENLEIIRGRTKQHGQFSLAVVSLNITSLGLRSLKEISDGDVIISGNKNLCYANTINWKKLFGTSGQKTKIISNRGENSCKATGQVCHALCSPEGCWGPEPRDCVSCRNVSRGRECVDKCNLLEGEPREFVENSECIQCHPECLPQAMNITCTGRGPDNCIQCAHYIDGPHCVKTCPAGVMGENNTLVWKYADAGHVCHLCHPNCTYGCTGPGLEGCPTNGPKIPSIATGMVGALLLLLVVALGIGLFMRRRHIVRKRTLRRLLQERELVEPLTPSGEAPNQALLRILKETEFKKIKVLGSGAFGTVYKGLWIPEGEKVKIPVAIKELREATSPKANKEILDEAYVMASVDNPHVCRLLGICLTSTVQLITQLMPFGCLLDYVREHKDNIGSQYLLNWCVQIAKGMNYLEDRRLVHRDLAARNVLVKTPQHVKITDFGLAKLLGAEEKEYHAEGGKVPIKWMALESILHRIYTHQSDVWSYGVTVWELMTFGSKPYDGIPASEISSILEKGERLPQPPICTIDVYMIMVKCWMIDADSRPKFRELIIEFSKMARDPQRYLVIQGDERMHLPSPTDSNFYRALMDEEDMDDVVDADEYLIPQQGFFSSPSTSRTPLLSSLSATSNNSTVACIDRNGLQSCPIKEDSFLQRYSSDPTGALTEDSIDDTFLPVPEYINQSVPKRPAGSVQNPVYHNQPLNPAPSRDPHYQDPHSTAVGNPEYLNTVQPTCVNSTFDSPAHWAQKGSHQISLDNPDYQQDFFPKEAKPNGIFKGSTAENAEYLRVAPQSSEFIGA
How it was run: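 EGFR from A431 lysate was captured on anti-EGFR antibody-coated plates and preincubated with compounds for 30 min. Autophosphorylation ran 5 min with 3 uM ATP and 5 mM MnCl2 (final), stopped with 20 mM EDTA. Phosphotyrosine was detected by anti-pTyr ELISA with ABTS/H2O2, read at 410 nm.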

Row | SMILES | Met Kinase % Inhibition (MET) | Biochem EGFR %Inhibition (EGFR)
1 | CCCCN(CCCC)c1ccc(C=C2C(=O)Nc3ccc(I)cc32)cc1 [10722/B10] | 56.4% | -11.3%
2 | O=C1Nc2ccc(I)cc2C1=Cc1ccc(C(F)(F)F)cc1 [10722/B11] | 83.0% | -15.5%
3 | CNS(=O)(=O)c1ccc2c(c1)C(=Cc1cc([N+](=O)[O-])c(O)c(C(C)(C)C)c1)C(=O)N2 [10722/D02] | 26.4% | 26.1%
4 | CNS(=O)(=O)c1ccc2c(c1)C(=Cc1c(O)cc(O)cc1O)C(=O)N2 [10722/D03] | 52.8% | 31.0%
5 | CNS(=O)(=O)c1ccc2c(c1)C(=Cc1ccc([N+](=O)[O-])s1)C(=O)N2 [10722/D04] | 63.4% | 20.3%
6 | CNS(=O)(=O)c1ccc2c(c1)C(=Cc1ccc(C(=O)O)cc1)C(=O)N2 [10722/D05] | 35.8% | -3.8%
7 | CNS(=O)(=O)c1ccc2c(c1)C(=Cc1ccc(F)cc1F)C(=O)N2 [10722/D06] | 32.4% | -2.5%
8 | CNS(=O)(=O)c1ccc2c(c1)C(=Cc1cc(C)c(O)c(C)c1)C(=O)N2 [10722/D07] | 42.6% | -2.8%
9 | CNS(=O)(=O)c1ccc2c(c1)C(=Cc1cc(Cl)c(O)c(C(C)(C)C)c1)C(=O)N2 [10722/D08] | 60.5% | -2.6%
10 | CNS(=O)(=O)c1ccc2c(c1)C(=Cc1csc([N+](=O)[O-])c1)C(=O)N2 [10722/D09] | 52.2% | -17.2%
11 | CCCCN(CCCC)c1ccc(C=C2C(=O)Nc3ccc(S(=O)(=O)NC)cc32)cc1 [10722/D10] | 40.5% | -0.6%
12 | CNS(=O)(=O)c1ccc2c(c1)C(=Cc1ccc(C(F)(F)F)cc1)C(=O)N2 [10722/D11] | 41.0% | -10.1%
13 | CC(C)(C)c1cc(C=C2C(=O)Nc3ccc(S(=O)(=O)Nc4ccc(C(F)(F)F)cc4)cc32)cc([N+](=O)[O-])c1O [10722/E02] | 71.1% | 22.2%
14 | O=C1Nc2ccc(S(=O)(=O)Nc3ccc(C(F)(F)F)cc3)cc2C1=Cc1c(O)cc(O)cc1O [10722/E03] | 88.4% | 33.0%
15 | O=C1Nc2ccc(S(=O)(=O)Nc3ccc(C(F)(F)F)cc3)cc2C1=Cc1ccc([N+](=O)[O-])s1 [10722/E04] | 52.6% | 1.4%
16 | O=C1Nc2ccc(S(=O)(=O)Nc3ccc(C(F)(F)F)cc3)cc2C1=Cc1ccc(C(=O)O)cc1 [10722/E05] | 73.0% | -7.0%
17 | O=C1Nc2ccc(S(=O)(=O)Nc3ccc(C(F)(F)F)cc3)cc2C1=Cc1ccc(F)cc1F [10722/E06] | 71.6% | 7.6%
18 | Cc1cc(C=C2C(=O)Nc3ccc(S(=O)(=O)Nc4ccc(C(F)(F)F)cc4)cc32)cc(C)c1O [10722/E07] | 71.6% | 28.7%
19 | CC(C)(C)c1cc(C=C2C(=O)Nc3ccc(S(=O)(=O)Nc4ccc(C(F)(F)F)cc4)cc32)cc(Cl)c1O [10722/E08] | 82.8% | 10.4%
20 | O=C1Nc2ccc(S(=O)(=O)Nc3ccc(C(F)(F)F)cc3)cc2C1=Cc1csc([N+](=O)[O-])c1 [10722/E09] | 55.1% | 4.1%
21 | CCCCN(CCCC)c1ccc(C=C2C(=O)Nc3ccc(S(=O)(=O)Nc4ccc(C(F)(F)F)cc4)cc32)cc1 [10722/E10] | 86.6% | -13.3%
22 | O=C1Nc2ccc(S(=O)(=O)Nc3ccc(C(F)(F)F)cc3)cc2C1=Cc1ccc(C(F)(F)F)cc1 [10722/E11] | 84.0% | 4.2%
